The values below come from publication PMC3627577 (2013).

Starred links: 1 amine or outer side, 2 acyl side, 3 side chain; linkers in the order of their positions; H or OH if unused. Positions of bridges follow the written chain, without caps; N, C: chain ends. Non-standard residues stand in square brackets, D forms with d. Residues, ends and D or L forms follow the SMILES beside them. Chains are numbered I, II in the order given. Actinocin(9to1) = Cc1c2oc3c(C)ccc(C(=O)[*:1])c3nc-2c(C(=O)[*:2])c(N)c1=O; NMeV = CN[C@H](C(=O)O)C(C)C; Sar = CNCC(=O)O

In assay [1] the test system is (CGG)16 (DNA, repeat) CGGCGGCGGCGGCGGCGGCGGCGGCGGCGGCGGCGGCGGCGGCGGCGG
Description: UV melting, 260 nm. The following applies: 50 mM NaCl; 20 mM Tris-HCl pH 7.3; 12 μM compound, 1 μM DNA.

For assay [2], the system named is GC1 hairpin (DNA, hairpin) AAAGCTTTTGTAAAGCTTT
Description: SPR kinetics, 1:1 Langmuir. Conditions: 50 mM NaCl; 20 mM Tris-HCl pH 7.3; ka/kd.

Assay [3] relates to GG2 hairpin (DNA, hairpin) ATGCGGCATTGTATGCGGCAT
Briefly: SPR kinetics, bivalent ligand model. Conditions: 50 mM NaCl; 20 mM Tris-HCl pH 7.3; ka/kd; site 1 of 2. On the technique in general: In SPR one partner is held on a chip, and binding of the other changes the refractive index at the surface.

Assay [4] relates to AT2 hairpin (DNA, hairpin) ATGCATGCATTGTATGCATGCAT
Description: SPR kinetics, bivalent ligand model. The following applies: 50 mM NaCl; 20 mM Tris-HCl pH 7.3; ka/kd; site 1 of 2.

In assay [5] the test system is GC2 hairpin (DNA, hairpin) ATGCGCATTGTATGCGCAT
Description: SPR kinetics, bivalent ligand model. Conditions: 50 mM NaCl; 20 mM Tris-HCl pH 7.3; ka/kd; site 1 of 2.

As a reminder, the ΔTm is the change in melting temperature against a reference sample.

As to `COc1cccc2c1C(=O)c1c(O)c3c(c(O)c1C2=O)C[C@@](O)(C(C)=O)C[C@@H]3O[C@H]1C[C@H](N)[C@H](O)[C@H](C)O1`, the ΔTm in assay [1] is 10.1 °C.

Take `Cc1c2ccncc2c(C)c2c1[nH]c1ccccc12`: the thermal shift (ΔTm) in assay [1] was 11.8 °C.

As for `Cc1c2oc3c(C)ccc(C(=O)N[C@@H]4C(=O)N[C@H](C(C)C)C(=O)N5CCC[C@H]5C(=O)N(C)CC(=O)N(C)[C@@H](C(C)C)C(=O)O[C@@H]4C)c3nc-2c(C(=O)N[C@@H]2C(=O)N[C@H](C(C)C)C(=O)N3CCC[C@H]3C(=O)N(C)CC(=O)N(C)[C@@H](C(C)C)C(=O)O[C@@H]2C)c(N)c1=O` (I: T[dV]P[Sar][NMeV] / II: T[dV]P[Sar][NMeV]; ester I:1-I:C, II:1-II:C; linker I:N-II:N via Actinocin(9to1)), the Ka1 in assay [2] came out at 2.29e+06 M⁻¹; in assay [3], 3.08e+06 M⁻¹; in assay [4] it was 1.287e+07 M⁻¹; in assay [5], 6.07e+06 M⁻¹. In assay [1], the ΔTm amounted to 23.4 °C.
